# According to PubChem BioAssay (NCI):
#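 Compound exposure: 48 hours, 5 concentrations, 96-well plates. Abbreviation: GI50, concentration required for 50% inhibition of growth. Definition used: TGI = concentration required for complete inhibition of growth.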
# How the values were obtained:
# Assay in all cases: NCI-60 cell line screen, 48 h
# ACHN renal = tested on: ACHN renal
# RPMI-8226 leukemia = tested on: RPMI-8226 leukemia
# NCI/ADR-RES ovarian = tested on: NCI/ADR-RES ovarian
# TK-10 renal = tested on: TK-10 renal
# UO-31 renal = tested on: UO-31 renal
# CAKI-1 renal = tested on: CAKI-1 renal
# SK-MEL-2 melanoma = tested on: SK-MEL-2 melanoma
# OVCAR-3 ovarian = tested on: OVCAR-3 ovarian
# SK-OV-3 ovarian = tested on: SK-OV-3 ovarian
# SF-539 CNS = tested on: SF-539 CNS
# HCT-15 colon = tested on: HCT-15 colon
# MDA-MB-231 breast = tested on: MDA-MB-231 breast
# K-562 leukemia = tested on: K-562 leukemia
# NCI-H460 lung = tested on: NCI-H460 lung
# OVCAR-8 ovarian = tested on: OVCAR-8 ovarian
# SK-MEL-28 melanoma = tested on: SK-MEL-28 melanoma
# NCI-H226 lung = tested on: NCI-H226 lung
# HS 578T breast = tested on: HS 578T breast
# DU-145 prostate = tested on: DU-145 prostate
# MDA-MB-435 = tested on: MDA-MB-435
# A549 NSCLC = tested on: A549 NSCLC
# BT-549 breast = tested on: BT-549 breast
# RXF 393 renal = tested on: RXF 393 renal
# MCF7 breast = tested on: MCF7 breast
# SR leukemia = tested on: SR leukemia
# MALME-3M melanoma = tested on: MALME-3M melanoma
# SNB-19 CNS = tested on: SNB-19 CNS
# A498 renal = tested on: A498 renal
# HCT-116 colon = tested on: HCT-116 colon
# SNB-75 CNS = tested on: SNB-75 CNS
# OVCAR-5 ovarian = tested on: OVCAR-5 ovarian
# SW-620 colon = tested on: SW-620 colon
# KM12 colon = tested on: KM12 colon
# CCRF-CEM leukemia = tested on: CCRF-CEM leukemia
# UACC-257 melanoma = tested on: UACC-257 melanoma
# SF-268 CNS = tested on: SF-268 CNS
# UACC-62 melanoma = tested on: UACC-62 melanoma
# IGROV1 ovarian = tested on: IGROV1 ovarian
# HOP-62 NSCLC = tested on: HOP-62 NSCLC
# HCC-2998 colon = tested on: HCC-2998 colon
# PC-3 prostate = tested on: PC-3 prostate
# SN12C renal = tested on: SN12C renal
# NCI-H522 lung = tested on: NCI-H522 lung
# NCI-H23 lung = tested on: NCI-H23 lung
# HOP-92 NSCLC = tested on: HOP-92 NSCLC
# T-47D breast = tested on: T-47D breast
# SF-295 CNS = tested on: SF-295 CNS
# 786-0 renal = tested on: 786-0 renal
smiles,measurement,setting,value
Cc1nc2ccc(Nc3nc(Cl)nc(N4CCOCC4)n3)cc2n1Cc1ccccc1,GI50,ACHN renal,9.35 µM
same,TGI,ACHN renal,28.7 µM
same,GI50,RPMI-8226 leukemia,97.2 µM
same,TGI,RPMI-8226 leukemia,> 100 µM
same,GI50,NCI/ADR-RES ovarian,4.43 µM
same,TGI,NCI/ADR-RES ovarian,> 100 µM
same,GI50,TK-10 renal,35.8 µM
same,TGI,TK-10 renal,> 100 µM
same,GI50,UO-31 renal,8.89 µM
same,TGI,UO-31 renal,> 100 µM
same,GI50,CAKI-1 renal,20.2 µM
same,TGI,CAKI-1 renal,> 100 µM
same,GI50,SK-MEL-2 melanoma,3.54 µM
same,TGI,SK-MEL-2 melanoma,26 µM
same,GI50,OVCAR-3 ovarian,4.19 µM
same,TGI,OVCAR-3 ovarian,36 µM
same,GI50,SK-OV-3 ovarian,3.66 µM
same,TGI,SK-OV-3 ovarian,> 100 µM
same,GI50,SF-539 CNS,14.2 µM
same,TGI,SF-539 CNS,47.6 µM
same,GI50,HCT-15 colon,2940 nM
same,TGI,HCT-15 colon,14.1 µM
same,GI50,MDA-MB-231 breast,2220 nM
same,TGI,MDA-MB-231 breast,9.44 µM
same,GI50,K-562 leukemia,2820 nM
same,TGI,K-562 leukemia,> 100 µM
same,GI50,NCI-H460 lung,11.9 µM
same,TGI,NCI-H460 lung,> 100 µM
same,GI50,OVCAR-8 ovarian,2950 nM
same,TGI,OVCAR-8 ovarian,> 100 µM
same,GI50,SK-MEL-28 melanoma,1750 nM
same,TGI,SK-MEL-28 melanoma,3.29 µM
same,GI50,NCI-H226 lung,7.88 µM
same,TGI,NCI-H226 lung,48.9 µM
same,GI50,HS 578T breast,4.67 µM
same,TGI,HS 578T breast,> 100 µM
same,GI50,DU-145 prostate,28.1 µM
same,TGI,DU-145 prostate,> 100 µM
same,GI50,MDA-MB-435,8.23 µM
same,TGI,MDA-MB-435,> 100 µM
same,GI50,A549 NSCLC,50.3 µM
same,TGI,A549 NSCLC,> 100 µM
same,GI50,BT-549 breast,2890 nM
same,TGI,BT-549 breast,29.4 µM
same,GI50,RXF 393 renal,1850 nM
same,TGI,RXF 393 renal,3.58 µM
same,GI50,MCF7 breast,18.4 µM
same,TGI,MCF7 breast,> 100 µM
same,GI50,SR leukemia,2830 nM
same,TGI,SR leukemia,> 100 µM
same,GI50,MALME-3M melanoma,5.24 µM
same,TGI,MALME-3M melanoma,24.5 µM
same,GI50,SNB-19 CNS,18.2 µM
same,TGI,SNB-19 CNS,> 100 µM
same,GI50,A498 renal,2850 nM
same,TGI,A498 renal,> 100 µM
same,GI50,HCT-116 colon,5.16 µM
same,TGI,HCT-116 colon,89 µM
same,GI50,SNB-75 CNS,4.47 µM
same,TGI,SNB-75 CNS,29.6 µM
same,GI50,OVCAR-5 ovarian,> 100 µM
same,TGI,OVCAR-5 ovarian,> 100 µM
same,GI50,SW-620 colon,3.1 µM
same,TGI,SW-620 colon,> 100 µM
same,GI50,KM12 colon,> 100 µM
same,TGI,KM12 colon,> 100 µM
same,GI50,CCRF-CEM leukemia,2930 nM
same,TGI,CCRF-CEM leukemia,> 100 µM
same,GI50,UACC-257 melanoma,5.93 µM
same,TGI,UACC-257 melanoma,> 100 µM
same,GI50,SF-268 CNS,3.11 µM
same,TGI,SF-268 CNS,> 100 µM
same,GI50,UACC-62 melanoma,3.43 µM
same,TGI,UACC-62 melanoma,22.9 µM
same,GI50,IGROV1 ovarian,2580 nM
same,TGI,IGROV1 ovarian,6.41 µM
same,GI50,HOP-62 NSCLC,16.2 µM
same,TGI,HOP-62 NSCLC,> 100 µM
same,GI50,HCC-2998 colon,2050 nM
same,TGI,HCC-2998 colon,3.85 µM
same,GI50,PC-3 prostate,10 µM
same,TGI,PC-3 prostate,> 100 µM
same,GI50,SN12C renal,6.79 µM
same,TGI,SN12C renal,88 µM
same,GI50,NCI-H522 lung,2980 nM
same,TGI,NCI-H522 lung,20.8 µM
same,GI50,NCI-H23 lung,1940 nM
same,TGI,NCI-H23 lung,3.92 µM
same,GI50,HOP-92 NSCLC,2070 nM
same,TGI,HOP-92 NSCLC,6.36 µM
same,GI50,T-47D breast,3.27 µM
same,TGI,T-47D breast,> 100 µM
same,GI50,SF-295 CNS,11.9 µM
same,TGI,SF-295 CNS,82 µM
same,GI50,786-0 renal,11.7 µM
same,TGI,786-0 renal,> 100 µM
